Data taken from US5153353A, “p-Oxybenzoic acid derivatives, process for the preparation thereof and use thereof as drug” (Klinge Pharma GmbH, priority 1990, dated 1992).

How the values were obtained:
[1] = system: normolipemic, male Wister rats; test: Determination of the hypolipemic effect in rats (serum total cholesterol and triglycerides after oral administration); format: in vivo, rat; settings: three administrations over three days
Experimental: 1) Determination of the hypolipemic effect in rats
The lipid-lowering effect of the test substances was examined in groups each of 10 normolipemic, male Wister rats of 200 to 220 g in weight.
The investigations were performed after a 3-week adaption training of the eating habits of the animals. The controlled feeding was carried out daily from 8 a.m. to 10 a.m. The test substances were administered at 11 a.m.
The test compounds were absorbed in an aqueous solution of 0.25% agar and 0.84% NaCl and administered orally. After three administrations over a period of three days blood was extracted from the animals.
The determination of cholesterol and triglycerides in the serum was made with the aid of the "Cobas-Bio" centrifugal analyzer of Hoffmann-La Roche.
a) Cholesterol determination CHOS-PAP method, enzymatic colour test according to J. Siedel et al. (J. Clin. Chem. Clin. Biochem. 19, 838 (1981))
b) Triglyceride determination Enzymatic cleavage of the triglycerides with the aid of specific lipases with subsequent determination of the liberated glycerol according to T. O. Tiffany et al. (Clin. Chem. 20, 476 (1974))

[2] = system: cholesterol biosynthesis in rat liver homogenate; test: Determination of the inhibition of cholesterol biosynthesis in rat liver homogenate (14C-acetate incorporation); format: biochemical; settings: compared with the blank value
Experimental: 2) Determination of the inhibition of cholesterol biosynthesis
3 g freshly prepared rat liver was homogenized in 6 ml ice-cooled puffer and centrifuged for 20 minutes at 20000×g. The supernatant was separated off and employed for the following determinations.
To a mixture of 110 μl supernatant and 300 μl incubation solution 10 μl of the methanolic test substance solution were pipetted and incubated at 37° C. for 20 minutes. Thereafter 10 μl of an ^14 C-acetate solution were added by pipette and incubated for a further 30 minutes. Thereafter, to the mixture 500 μl ethanolic KOH solution were added, further incubation carried out for 60 minutes at 75° C. and thereafter the reaction stopped in an ice bath. To enable a yield correction to be made for the subsequent extraction of the ^14 C-cholesterol formed ^3 H-cholesterol (about 10^-3 μCi) was added thereto by pipetting. In addition, 500 μl of an ethanolic solution of unmarked cholesterol was added. The cholesterol of the mixture was extracted twice with 1 ml petroleum ether in each case, the extract dried and taken up with 0.6 ml of an ethanol/acetone mixture (1/1). The dissolved cholesterol was then precipitated by means of 1.4 ml of a digitonin solution (=7 mg). After 15 h at 0° C. the precipitate was centrifuged off, dissolved with 0.5 ml methanol/glacial acetic acid (33/5) and diluted with 2 ml methanol. The radioactivity of the biosynthetically formed cholesterol was determined in 12 ml scintillation liquid (DIMILUME) by means of a scintillation counter.
Buffer: 6.8 g KH2 PO4, 0.6 g MgCl2, 0.37 g EDTA, 1.83 g nicotine amide, 51.35 g saccharose and 0.4 g mercaptoethanol were dissolved in distilled water and diluted to 500 ml (PH =7.2).
Incubation solution: The following were each individually dissolved:
8.6 mg NAD with 1.3 ml buffer
10.2 mg NADP with 1.3 ml buffer
39.6 mg glucose-6-phosphate with 0.65 ml buffer
31.6 mg glucose-6-phosphate-dehydrogenase (1000 U/0.91 ml) with 0.285 ml buffer
These solutions were not mixed until immediately prior to use.
Solution 1: 250 μCi ^14 C-sodium acetate in 1 ml aqua dest.
Solution 2: 512.5 mg sodium acetate in 10 ml aqua dest.
Prior to the test 0.1 ml of the solution 1 and 0.4 ml of the solution 2 were mixed and added to 2 ml aqua dest.
Ethanolic KOH: 10 g KOH were dissolved in 100 ml. ethanol
Method: R. E. Dugan et al. (Archives Biochem. Biophys. 152,21 (1972))

CCOC(=O)C(C)(C)Oc1ccc(Cl)cc1 [CLOFIBRAT, reference compound]
Percentage change of the total cholesterol (TC) level in the rat serum, X ± SD ([1]; 100 mg/kg): -14.5 ± 12.0% | Percentage change of the triglyceride (TG) level in the rat serum, X ± SD ([1]; 100 mg/kg): -29.2 ± 19.4%

CC(C)(C)c1ccc(CCC(O)COc2ccc(C(=O)OCC(O)CO)cc2)cc1 (stereo not drawn) [Compound 1, 4-[4-(4'-tert. butylphenyl)-2-hydoxybutoxy]benzoic acid-2,3-dihydroxypropylester]
Percentage change of the total cholesterol (TC) level in the rat serum, X ± SD ([1]; 10 mg/kg): +3.8 ± 16.4% | Percentage change of the triglyceride (TG) level in the rat serum, X ± SD ([1]; 10 mg/kg): -26.2 ± 51.1% | Percentage change of the total cholesterol (TC) level in the rat serum, X ± SD ([1]; 30 mg/kg): -17.1 ± 13.9% | Percentage change of the triglyceride (TG) level in the rat serum, X ± SD ([1]; 30 mg/kg): -28.5 ± 9.0% | Percentage change of the total cholesterol (TC) level in the rat serum, X ± SD ([1]; 100 mg/kg): -44.1 ± 10.8% | Percentage change of the triglyceride (TG) level in the rat serum, X ± SD ([1]; 100 mg/kg): -34.7 ± 8.6% | Percentage inhibition of cholesterol biosynthesis in rat liver homogenate ([2]; concentration 1 × 10^-4 Mol/l): 68% | Percentage inhibition of cholesterol biosynthesis in rat liver homogenate ([2]; concentration 1 × 10^-5 Mol/l): 34% | Percentage inhibition of cholesterol biosynthesis in rat liver homogenate ([2]; concentration 3 × 10^-5 Mol/l): 57% | Percentage inhibition of cholesterol biosynthesis in rat liver homogenate ([2]; concentration 3 × 10^-6 Mol/l): 0%

CC(C)(CO)c1ccc(CCC(O)COc2ccc(C(=O)O)cc2)cc1 (stereo not drawn) [Compound 2]
Percentage change of the total cholesterol (TC) level in the rat serum, X ± SD ([1]; 100 mg/kg): -39.7 ± 12.4% | Percentage change of the triglyceride (TG) level in the rat serum, X ± SD ([1]; 100 mg/kg): -1.6 ± 21.4% | Percentage inhibition of cholesterol biosynthesis in rat liver homogenate ([2]; concentration 1 × 10^-4 Mol/l): 75% | Percentage inhibition of cholesterol biosynthesis in rat liver homogenate ([2]; concentration 1 × 10^-5 Mol/l): 41% | Percentage inhibition of cholesterol biosynthesis in rat liver homogenate ([2]; concentration 3 × 10^-5 Mol/l): 65% | Percentage inhibition of cholesterol biosynthesis in rat liver homogenate ([2]; concentration 3 × 10^-6 Mol/l): 16%

CC(C)(C(=O)O)c1ccc(CCC(O)COc2ccc(C(=O)O)cc2)cc1 (stereo not drawn) [Compound 3, 4-{4-[4'-(1-carboxy-1-methylethyl)phenyl]-2-hydroxybutoxy}benzoic acid]
Percentage change of the total cholesterol (TC) level in the rat serum, X ± SD ([1]; 100 mg/kg): -17.5 ± 6.2% | Percentage change of the triglyceride (TG) level in the rat serum, X ± SD ([1]; 100 mg/kg): -19.4 ± 9.7% | Percentage inhibition of cholesterol biosynthesis in rat liver homogenate ([2]; concentration 1 × 10^-4 Mol/l): 70% | Percentage inhibition of cholesterol biosynthesis in rat liver homogenate ([2]; concentration 1 × 10^-5 Mol/l): 29% | Percentage inhibition of cholesterol biosynthesis in rat liver homogenate ([2]; concentration 3 × 10^-5 Mol/l): 56% | Percentage inhibition of cholesterol biosynthesis in rat liver homogenate ([2]; concentration 3 × 10^-6 Mol/l): 14%
